One series has as its target T1, ERα (Homo sapiens, UniProt P03372).
T1 construct: endogenous in cells; host or cells: MCF7 (also MCF7 engineered to express Cas9)
T1 sequence (P03372 1-595): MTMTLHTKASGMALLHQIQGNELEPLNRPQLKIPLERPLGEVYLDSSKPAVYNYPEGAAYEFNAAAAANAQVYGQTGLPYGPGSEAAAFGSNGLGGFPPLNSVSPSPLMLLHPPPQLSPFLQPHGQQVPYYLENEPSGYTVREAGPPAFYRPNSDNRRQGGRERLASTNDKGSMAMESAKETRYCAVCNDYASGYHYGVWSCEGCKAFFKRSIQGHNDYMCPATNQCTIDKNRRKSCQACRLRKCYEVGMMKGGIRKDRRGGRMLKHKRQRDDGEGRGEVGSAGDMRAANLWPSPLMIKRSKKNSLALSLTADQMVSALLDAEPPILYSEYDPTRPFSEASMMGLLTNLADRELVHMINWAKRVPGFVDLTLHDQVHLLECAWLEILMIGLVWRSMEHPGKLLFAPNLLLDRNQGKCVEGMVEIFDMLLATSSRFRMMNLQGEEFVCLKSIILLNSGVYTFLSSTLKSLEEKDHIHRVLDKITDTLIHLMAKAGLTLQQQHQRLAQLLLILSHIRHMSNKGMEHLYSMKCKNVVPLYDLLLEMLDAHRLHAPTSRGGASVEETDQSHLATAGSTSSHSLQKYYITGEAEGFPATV
The series can be described thus: Western blot analysis of ERα in MCF7 cells (dose response, MG132, VHL ligand and cpd 8 competition). Format: cell-based. The method, then:
Fig. 2 AZ’6421 degrades ERα through a PROTAC mechanism of action. a Immunoblots for ERα and vinculin loading control. MCF7 cells were pre-treated with 10 µM MG132 or DMSO control for 1 h before being exposed to DMSO, AZ’6421, or fulvestrant, at the concentrations indicated, for a further 7 h. A representative immunoblot from two biological replicates is shown. b As in a but cells were pre-treated with 10 µM VHL ligand (Ac-(S,R,S)-AHPC) prior to addition of DMSO, AZ’6421 or fulvestrant. c MCF7 cells expressing BFP-Cas9 were reverse transfected with the crRNA:tracrRNA pool targeting VHL for 72 h prior to treatment with increasing concentrations of AZ’6421 for a further 24 h. Cells were then fixed, stained, and imaged to assess ERα and Cas9 expression. ERα levels in Cas9 positive cells were normalised to unedited cells (0) and ESR1 KO cells (-100). Data points are from three independent experiments, points in bold represent the mean. d Structure of AZ’6421 and the (S)-prolinol epimer, 7. e Concentration-response curves for AZ’6421 and 7. ERα levels in MCF7 cells were assessed using an immunofluorescence endpoint after 24 h exposure to compound. […] Data points are from 5 (AZ'6421) or 2 (Cpd 7) independent experiments with technical duplicates performed for each experiment, bold points represent the mean. All concentration-response curves were plotted using nonlinear regression analysis in GraphPad Prism.
Fig. 6 Assessment of the cause of the in vitro/in vivo disconnect. a CTC174 tumours were disaggregated into single cells, seeded in 6-well plates and dosed with increasing concentrations of AZ’6421 for 24 hours before being lysed. ERα levels were assessed by immunoblotting. ERɑ levels normalised to vinculin and expressed as % DMSO control are shown underneath the immunoblot. b Representative IHC images taken from sections of tumour treated with vehicle control or 100 mg/kg AZ’6421 for 4 days. Sections were stained with an antibody against ERα (Sp1, Ventana). c Schematic of potential sites of metabolism d Free plasma exposure of AZ’6421 and its metabolite 8 following 100 mg/kg dosing of AZ’6421. e Concentration-response curves for AZ’6421 and metabolite 8. ERα levels in MCF7 cells were assessed using an immunofluorescence endpoint after 24 h exposure to compound. […] Points in bold represent the mean. f Effect of metabolite 8 on ERα degradation in CTC174 cells cultured ex vivo. […] MCF7 cells were pre-treated with 10 µM cpd 8 or DMSO control for 1 h before being exposed to DMSO, AZ’6421 or fulvestrant, at the concentrations indicated, for a further 24 h. A representative immunoblot from two biological replicates is shown. TEXT PRINTED IN THE PICTURE: (a) AZ'6421: ERα % of DMSO control: 20.3 (1 nM); ERα % of DMSO control: 12.0 (10 nM); ERα % of DMSO control: 4.1 (30 nM); ERα % of DMSO control: 4.2 (100 nM); ERα % of DMSO control: 3.9 (300 nM); ERα % of DMSO control: 3.6 (1000 nM)
Cells were seeded into 12-well tissue culture-treated plates at 0.5 x 10^6 cells/well in phenol red-free RPMI containing 5% (v/v) charcoal-stripped FBS (F6765, Sigma) and left to adhere overnight. In experiments to detect agonism or for SILAC experiments, FBS was double stripped using activated charcoal. Cells were treated with compound or 0.1% DMSO vehicle control for the times indicated prior to being lysed in Pierce RIPA buffer (Thermo Scientific), supplemented with protease and phosphatase inhibitors. Expression levels of proteins were determined by standard western blotting techniques (BioRad 4%-12% Bis-Tris gels). Antibodies were diluted in 5% milk-PBS-Tween and protein levels were detected using Pierce WestDura chemiluminescent reagents followed by visualisation and quantification on a Syngene ChemiGenius Imager. Where blots were quantified, protein levels were normalised to beta-actin or vinculin control and expressed as % of vehicle control.
In general terms: In western blotting, separated proteins are transferred to a membrane and probed.

Series [1] in a line: Mouse hepatocyte intrinsic clearance. Format: in vitro ADME. The method, then: Livers from CD-1 male mice weighing 30-35 g were digested and perfused using D-Hanks solution containing EDTA or collagenase. Once digested the liver was transferred to a petri dish and the hepatocytes were prepared by washing and centrifuging with a Leibovitz-15 medium containing 50% isotonic percoll. A cell viability >80% was required to progress the cells. The test compound was prepared to 10 mM in 100% DMSO and further diluted to 100 μM in 100% acetonitrile. The hepatocyte incubations were prepared in Leibovitz’s L-15 Medium pH 7.4 containing 1 million hepatocytes/mL and a final compound concentration of 1 µM. Cell viability was determined using a Cellometer Vision and >80% cell viability was required to proceed with the compound incubation. The compound/cell solution (250 µL) was incubated for 2 h at 37 °C and shaken at 900 rpm on an Eppendorf Thermomixer Comfort plate shaker. Samples (20 µL) were taken at 0.5, 5, 15, 30, 45, 60, 80, 100, and 120 min and quenched with 100 μL of 100% ice-cold acetonitrile. Samples were shaken at 800 rpm for 2 min and centrifuged at 4000 rpm for 20 min at 4 °C to pellet precipitated protein. The supernatant fraction was diluted 1:5 with deionised water, shaken at 1000 rpm for 2 min, and further diluted 1:1 with deionised water. Samples were analysed by LC-MS/MS[17].

Molecules are shown by their SMILES.

On to `Cc1ncsc1-c1ccc(CNC(=O)[C@@H]2C[C@@H](O)CN2C(=O)[C@@H](NC(=O)COCCCOCCCOc2cc(F)c([C@@H]3c4[nH]c5ccccc5c4C[C@@H](C)N3CC(C)(C)F)c(F)c2)C(C)(C)C)cc1` [Compound 5], for which the “effect of MG132 pre-treatment on ERα degradation” value at ERα (10 µM MG132 1 h, then compound 7 h, MCF7) is on record as “attenuated ERα degradation”. Besides, at ERα (10 µM VHL ligand, MCF7), the “effect of excess acetylated-(S,R,S)-AHPC pre-treatment on ERα degradation” value is “partially reduced ERα degradation”. On ERα (MCF7, 100 and 300 nM, 24 h), the “effect of excess (10 µM) 8 on ERα degradation” value is “reduce this degradation to levels achieved in the presence of 8 alone”. Besides, the ERα degradation entry at ERα (MCF7, 100 and 300 nM, 24 h, western blot) is given as “near-complete degradation of ERα”. Moreover, the “concentration giving maximal ERα degradation” value on ERα (MCF7, 24 hours, western blot) is no less than 10 nM. The remaining activity at 1 µM at ERα (MCF7, read-out: ERa % of control) was determined as 0.87%. The mouse hepatocytes stability in series [1] was found to be 9 µL/min/x10^6 cells. The hepatocyte CLint at 1 µM in series [1] (male, CD-1, mouse, hepatocytes, pH 7.4, read-out: muHeps (mouse hepatocytes) clearance) worked out at 9 µL/min/1e6 cells. This compound displayed a muHeps (mouse hepatocytes) clearance in series [1] (mouse) of 9.5 µL/min/1e6 cells.

Values taken from article PMC11091220, “Metabolism-driven in vitro/in vivo disconnect of an oral ERɑ VHL-PROTAC” (Communications Biology, 2024).
